# Reference: ChEMBL document CHEMBL1201862, “PubChem BioAssay data set” (2004)
#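 Each compound was tested at five concentrations against cells in 96-well plates for 48 hours. GI50 = concentration required for 50% inhibition of growth.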 Active and inactive are the calls of the source. Rule as the data show it: active = GI50 up to about 1.1 µM and inactive = higher.
# How the values were obtained:
# Test in all cases: NCI-60 cell line screen, 48 h
# OVCAR-5 = tested on: OVCAR-5
# SF-539 = tested on: SF-539
# NCI-H23 = tested on: NCI-H23
# HCT-15 = tested on: HCT-15
# SF-268 = tested on: SF-268
# EKVX = tested on: EKVX
# SNB-19 = tested on: SNB-19
# K562 = tested on: K562
# IGROV-1 = tested on: IGROV-1
# UACC-257 = tested on: UACC-257
# SK-MEL-28 = tested on: SK-MEL-28
# UO-31 = tested on: UO-31
# HOP-62 = tested on: HOP-62
# NCI-H522 = tested on: NCI-H522
# MDA-N = tested on: MDA-N
# SR = tested on: SR
# CAKI-1 = tested on: CAKI-1
# Hs-578T = tested on: Hs-578T
# NCI/ADR-RES = tested on: NCI/ADR-RES
# HOP-92 = tested on: HOP-92
SMILES,GI50 (OVCAR-5),GI50 (SF-539),GI50 (NCI-H23),GI50 (HCT-15) [µM],GI50 (SF-268),GI50 (EKVX),GI50 (SNB-19),GI50 (K562),GI50 (IGROV-1),GI50 (UACC-257),GI50 (SK-MEL-28),GI50 (UO-31),GI50 (HOP-62),GI50 (NCI-H522),GI50 (MDA-N),GI50 (SR),GI50 (CAKI-1),GI50 (Hs-578T),GI50 (NCI/ADR-RES),GI50 (HOP-92)
CCOP(=O)(OCC)OC1CC(n2cnc3c(N(CC)CC)ncnc32)OC1CO[Si](C)(C)C(C)(C)C (stereo not given),19 µM (inactive),19.1 µM (inactive),17 µM (inactive),21.4,15.3 µM (inactive),5.86 µM (inactive),18.2 µM (inactive),17.8 µM (inactive),16.9 µM (inactive),16.5 µM (inactive),18.5 µM (inactive),19.1 µM (inactive),19.7 µM (inactive),14.3 µM (inactive),18 µM (inactive),31.3 µM (inactive),17.5 µM (inactive),22 µM (inactive),20.8 µM (inactive),
C1=Nc2sc3c(c2C2=NCCN12)CCCC3,18.2 µM (inactive),,15.6 µM (inactive),16.4,20.6 µM (inactive),15.6 µM (inactive),18.4 µM (inactive),22.4 µM (inactive),15.4 µM (inactive),16.3 µM (inactive),20.7 µM (inactive),16.3 µM (inactive),20 µM (inactive),15.9 µM (inactive),20.1 µM (inactive),21.2 µM (inactive),17.4 µM (inactive),21.5 µM (inactive),18.2 µM (inactive),
Cc1c(Cl)c(=O)oc2cc(OCC(O)COC(C)C)ccc12 (stereo not given),> 100 µM (inactive),,> 100 µM (inactive),,97.1 µM (inactive),37.1 µM (inactive),> 100 µM (inactive),23.3 µM (inactive),65.8 µM (inactive),74 µM (inactive),> 100 µM (inactive),40.3 µM (inactive),38.7 µM (inactive),> 100 µM (inactive),48.1 µM (inactive),31.9 µM (inactive),> 10 µM (inactive),48.4 µM (inactive),75.7 µM (inactive),35 µM (inactive)
CC(C)[C@]12O[C@H]1[C@@H]1O[C@@]13[C@@]1(C)CCC4=C(COC4=O)[C@@H]1C[C@@H]1O[C@@]13C2=O [TRIPTONIDE],0.0317 µM (active),0.0171 µM (active),< 0.01 µM (active),0.0251,0.0229 µM (active),0.0287 µM (active),,0.0128 µM (active),< 0.01 µM (active),< 0.0164 µM (active),0.0126 µM (active),0.0123 µM (active),< 0.01 µM (active),< 0.0186 µM (active),< 0.0113 µM (active),< 0.01 µM (active),,< 0.0158 µM (active),0.0386 µM (active),0.0237 µM (active)
CN(C)Cc1cc(C=O)cc(CN(C)C)c1O,,> 100 µM (inactive),26.1 µM (inactive),> 100,> 100 µM (inactive),> 100 µM (inactive),> 100 µM (inactive),> 100 µM (inactive),> 100 µM (inactive),> 100 µM (inactive),> 100 µM (inactive),> 100 µM (inactive),> 100 µM (inactive),> 100 µM (inactive),> 100 µM (inactive),> 100 µM (inactive),,> 100 µM (inactive),> 100 µM (inactive),> 100 µM (inactive)
[N-]=[N+]=NC1=C(N=[N+]=[N-])c2cccc3cccc(c23)C1=O,> 100 µM (inactive),> 100 µM (inactive),> 100 µM (inactive),> 100,> 100 µM (inactive),> 100 µM (inactive),> 100 µM (inactive),> 100 µM (inactive),68.2 µM (inactive),> 100 µM (inactive),,> 100 µM (inactive),49.7 µM (inactive),> 100 µM (inactive),< 0.01 µM (active),88.3 µM (inactive),> 100 µM (inactive),> 100 µM (inactive),> 100 µM (inactive),> 100 µM (inactive)
